This is an account of results in patent publication US12384777B2 (Tay Therapeutics Limited, priority 2019, dated 2025).

Like-named read-outs stand apart in the source and are kept apart here.

The term Kd denotes the concentration at which binding is half-saturated. In general, EC50 refers to the concentration at which the effect is half-maximal.

Data set [1] deals with BRD4 BD1 (Homo sapiens (Human), UniProt O60885). Nature of the data set: Bromodomain binding assay (T7 phage display, qPCR), BRD4 BD1. The following applies: read-out: BRD4 BD1 Kd. As to the method: (§1) T7 phage strains displaying bromodomains were grown in parallel in 24-well blocks in an E. coli host derived from the BL21 strain. E. coli were grown to log-phase and infected with T7 phage from a frozen stock (multiplicity of infection=0.4) and incubated with shaking at 32° C. until lysis (90-150 min). The lysates were centrifuged (5,000×g) and filtered (0.2 μm) to remove cell debris. Streptavidin-coated magnetic beads were treated with biotinylated small molecule or acetylated peptide ligands for 30 min at RT to generate affinity resins for bromodomain assays. The ligated beads were blocked with excess biotin and washed with blocking buffer (SeaBlock (Pierce), 1% BSA, 0.05% Tween 20, 1 mM DTT) to remove unbound ligand and to reduce non-specific phage binding. Binding reactions were assembled by combining bromodomains, ligated affinity beads, and test compounds in 1× binding buffer (16% SeaBlock, 0.32×PBS, 0.02% BSA, 0.04% Tween 20, 0.004% Sodium azide, 7.9 mM DTT). Test compounds were prepared as 1000× stocks in 100% DMSO and subsequently diluted 1:25 in MEG. The compounds were then diluted directly into the assays such that the final concentrations of DMSO and MEG were 0.1% and 2.4%, respectively. All reactions were performed in polypropylene 384-well plates in a final volume of 0.02 ml. The assay plates were incubated at RT with shaking for 1 hr and the affinity beads were washed with wash buffer (1×PBS, 0.05% Tween 20). The beads were then re-suspended in elution buffer (1×PBS, 0.05% Tween 20, 2 μM non-biotinylated affinity ligand) and incubated at RT with shaking for 30 min. The bromodomain concentration in the eluates was measured by quantitative polymerase chain reaction (qPCR).
(§2) An 11-point 3-fold serial dilution of each test compound was prepared in 100% DMSO at 1000× final test concentration. All compounds were distributed by acoustic transfer (non-contact dispensing) in 100% DMSO. The compounds were then diluted directly into the assays such that the final concentration of DMSO was 0.09%. Most dissociation constants were determined using a compound top concentration=10,000 nM. If the initial dissociation constant determined was <0.169 nM (the lowest concentration tested), the measurement was repeated with a serial dilution starting at a lower top concentration.
(§3) The same bromodomain assay procedure as that outlined above was used. Example compounds were screened at 30 times their Kd, and results for primary screen binding interactions are reported as ‘% Ctrl’, where lower numbers indicate stronger hits in the matrix.

In data set [2] the target is BRD4 BD2 (Homo sapiens (Human), UniProt O60885). Nature of the data set: Bromodomain binding assay (T7 phage display, qPCR), BRD4 BD2. The following applies: read-out: BRD4 BD2 Kd. As to the method: as §1, §2, §3
On the technique in general: In qPCR the cycle at which signal appears reflects the starting amount.

Data set [3] relates to CD4+ T-cells stimulated by CD2, CD3 and CD28 antibodies. In words: Cellular activity IL-4: reduction of IL-4 levels in activated CD4+ T-cells. The format is cell-based, human. As for the experimental part:
• 1. CD4^+ T-cells are isolated from cryopreserved human peripheral blood mononuclear cells (PBMCs) using EasySep™ Kit (Cat. No. 17952, Stemcell Technologies). • 2. CD2, CD3 and CD28 antibodies coated beads from T cell Activation/Expansion Kit (Cat. No. 130-091-441, Miltenyi Biotec) are added to the CD4^+ T-cells at a bead-to-cell ratio of 1:2. • 3. CD4^+ T-cells along with the beads are seeded at 2×10^5 cells/well in a round bottom 96-well plate and treated with different compounds and controls in a total volume of 200 μl. • 4. The cells are cultured for 48 hrs at 37° C., 5% CO2. • 5. Supernatant is collected and IL-4 is analysed by ELISA.

The subject of data set [4] is human liver hepatocytes. In words: Intrinsic clearance in human liver hepatocytes. The format is in vitro ADME. To be noted: human cryopreserved hepatocytes, 0.5 μM test compound. As to the method:
Vials of human cryopreserved hepatocytes, supplied by Life Technologies, were thawed according to manufacturer's instructions and cells re-suspended in Williams Medium E (WME) containing cell maintenance supplement pack (CM4000, Life Technologies). Hepatocytes were incubated in suspension (0.5 million cells/mL) in 48 well non-collagen coated cell culture plates for 10 min at 37° C., 5% CO2. Upon addition of an equal volume of supplemented WME containing 1 μM test compound, an aliquot of incubation solution was removed to acetonitrile containing internal standard (final concentration 0.5 μM test compound and a cell density of 0.25 million cells/mL). Similarly, aliquots were removed at 3, 6, 9, 15, 30, 45, 60, 90 and 120 min. 100 μL of 80:20 water:acetonitrile was added to all samples and the analysis plate was centrifuged for 10 min at RT prior to injection and analysis of samples by UPLC-MS/MS. The response (area ratio of test compound to internal standard) was plotted against time using an exponential decay model from which rate of disappearance was calculated.

Where [5] appears, read: Homo sapiens, T-cell, 48 hrs, ELISA, read-out: EC50 reduction of IL-4 levels.
Where [6] appears, read: Homo sapiens, T-cell, read-out: cellular EC50 values, reduction of IL-4 levels.

In the case of `Cn1cc(-c2scnc2Oc2ccccc2)c2cc[nH]c2c1=O` [Example 4, 6-methyl-4-(4-phenoxythiazol-5-yl)-1,6-dihydro-7H-pyrrolo[2,3-c]pyridin-7-one], the Kd was 10 to 100 nM in data set [1] and no more than 10 nM in data set [2]. Besides, the results for the EC50 in data set [3] (setting [5]) and in data set [3] (setting [6]) were 10 to 100 nM and less than 100 nM, respectively. Further, the “Intrinsic clearance, % Liver Blood Flow” value in data set [4] was 80 % Liver Blood Flow.

As to `Cn1ccc(-c2cn(C)c(=O)c3[nH]ccc23)c(Oc2ccccc2)c1=O` [Example 5, 6-methyl-4-(1-methyl-2-oxo-3-phenoxy-1,2-dihydropyridin-4-yl)-1,6-dihydro-7H-pyrrolo[2,3-c]pyridin-7-one], the Kd is 10 to 100 nM in data set [1] and no more than 10 nM in data set [2]. Besides, the EC50 in data set [3] (setting [5]) was no more than 10 nM; in data set [3] (setting [6]) it was less than 100 nM. In addition, the “Intrinsic clearance, % Liver Blood Flow” value in data set [4] is reported as less than 34 % Liver Blood Flow.

`Cn1cc(Oc2ccccc2)c(-c2cn(C)c(=O)c3[nH]ccc23)cc1=O` [Example 7, 6-methyl-4-(1-methyl-2-oxo-5-phenoxy-1,2-dihydropyridin-4-yl)-1,6-dihydro-7H-pyrrolo[2,3-c]pyridin-7-one]: the Kd in data set [1] was 10 to 100 nM; in data set [2], no more than 10 nM. Further, the EC50 was 10 to 100 nM in data set [3] (setting [5]) and less than 100 nM in data set [3] (setting [6]). The “Intrinsic clearance, % Liver Blood Flow” value in data set [4] is less than 34 % Liver Blood Flow.

Take `Cn1cc(-c2cc(O)ccc2Oc2ccccc2)ccc1=O` [Example 8, 5-(5-hydroxy-2-phenoxyphenyl)-1-methyl pyridin-2(1H)-one]: in data set [1], the Kd lay within 10 to 100 nM. Moreover, the EC50 in data set [3] (setting [5]) lay within 100 to 1000 nM. The “Intrinsic clearance, % Liver Blood Flow” value in data set [4] stood at 95 % Liver Blood Flow.

Turning to `Cn1cc(-c2cc(O)ccc2OC2CCC2)c2cc[nH]c2c1=O` [Example 10, 4-(2-cyclobutoxy-5-hydroxyphenyl)-6-methyl-1,6-dihydro-7H-pyrrolo[2,3-c]pyridin-7-one], the Kd in data set [1] was no more than 10 nM. Moreover, the EC50 was 10 to 100 nM in data set [3] (setting [5]) and less than 100 nM in data set [3] (setting [6]). Further, the “Intrinsic clearance, % Liver Blood Flow” value in data set [4] came out at 93 % Liver Blood Flow.

`Cn1cc(-c2scnc2Oc2ccccc2)ccc1=O` [Example 18, 1-methyl-5-(4-phenoxythiazol-5-yl)pyridin-2(1H)-one]: in data set [1], the Kd was 100 to 1000 nM. Also, the EC50 in data set [3] (setting [5]) was greater than 1000 nM. Moreover, the “Intrinsic clearance, % Liver Blood Flow” value in data set [4] stood at 69 % Liver Blood Flow.

With `Cn1cc(-c2scnc2Oc2ccc(O)cc2)c2cc[nH]c2c1=O` [Example 20, 4-(4-(4-hydroxyphenoxy)thiazol-5-yl)-6-methyl-1,6-dihydro-7H-pyrrolo[2,3-c]pyridin-7-one], in data set [1], the Kd was 10 to 100 nM. In addition, the EC50 in data set [3] (setting [5]) is 10 to 100 nM; in data set [3] (setting [6]), less than 100 nM.

Take `Cn1cc(Oc2cccc(O)c2)c(-c2cn(C)c(=O)c3[nH]ccc23)cc1=O` [Example 24, 4-(5-(3-hydroxyphenoxy)-1-methyl-2-oxo-1,2-dihydropyridin-4-yl)-6-methyl-1,6-dihydro-7H-pyrrolo[2,3-c]pyridin-7-one]: the Kd in data set [1] was 10 to 100 nM. Moreover, the EC50 in data set [3] (setting [5]) fell in the range of 100 to 1000 nM. In data set [4], the “Intrinsic clearance, % Liver Blood Flow” value worked out at 45 % Liver Blood Flow.

As for `COc1ccc(Oc2c(-c3cn(C)c(=O)c4[nH]ccc34)ccn(C)c2=O)cc1` [Example 34, 4-(3-(4-methoxyphenoxy)-1-methyl-2-oxo-1,2-dihydropyridin-4-yl)-6-methyl-1,6-dihydro-7H-pyrrolo[2,3-c]pyridin-7-one], the Kd in data set [1] lay in the range of 10 to 100 nM. The “Intrinsic clearance, % Liver Blood Flow” value in data set [4] was less than 34 % Liver Blood Flow.

On to `Cc1cc(F)cc(C)c1Oc1c(-c2ccc(=O)n(C)c2)ccn(C)c1=O` [Example 39, 3′-(4-fluoro-2,6-dimethylphenoxy)-1,1′-dimethyl-[3,4′-bipyridine]-2′,6(1H,1′H)-dione], for which the Kd was greater than 1000 nM in data set [1] and 100 to 1000 nM in data set [2]. Besides, the EC50 in data set [3] (setting [5]) is greater than 1000 nM.

Take `Cc1cc(F)cc(C)c1Oc1c(-c2cn(C)c(=O)c3[nH]ccc23)ccn(C)c1=O` [Example 40, 4-(3-(4-fluoro-2,6-dimethylphenoxy)-1-methyl-2-oxo-1,2-dihydropyridin-4-yl)-6-methyl-1,6-dihydro-7H-pyrrolo[2,3-c]pyridin-7-one]: the results for the Kd in data set [1] and in data set [2] were 100 to 1000 nM and 10 to 100 nM, respectively. The EC50 in data set [3] (setting [5]) is 100 to 1000 nM. Besides, the “Intrinsic clearance, % Liver Blood Flow” value in data set [4] is reported as less than 34 % Liver Blood Flow.

On to `Cc1cc(F)cc(C)c1Oc1c(-c2cn(C)c(=O)c3[nH]c(C(=O)NC(C)(C)C)cc23)ccn(C)c1=O` [Example 42, N-(tert-butyl)-4-(3-(4-fluoro-2,6-dimethylphenoxy)-1-methyl-2-oxo-1,2-dihydropyridin-4-yl)-6-methyl-7-oxo-6,7-dihydro-1H-pyrrolo[2,3-c]pyridine-2-carboxamide], for which the Kd in data set [1] is greater than 1000 nM; in data set [2], no more than 10 nM. For the same molecule, in data set [3] (setting [5]), the EC50 lay in the range of 100 to 1000 nM. Moreover, the “Intrinsic clearance, % Liver Blood Flow” value in data set [4] was less than 34 % Liver Blood Flow.

`Cc1cc(F)cc(C)c1Oc1c(-c2cn(C)c(=O)c3[nH]c(C(=O)NC(C)(C)C(F)(F)F)cc23)ccn(C)c1=O` [Example 43]: the values for the Kd in data set [1] and in data set [2] were greater than 1000 nM and 10 to 100 nM, respectively. Besides, the EC50 in data set [3] (setting [5]) lay within 100 to 1000 nM. Moreover, in data set [4], the “Intrinsic clearance, % Liver Blood Flow” value was found to be 38 % Liver Blood Flow.

As to `Cc1cc(F)cc(C)c1Oc1c(-c2cn(C)c(=O)c3[nH]c(C(=O)NC4(C)CC4(F)F)cc23)ccn(C)c1=O` (centres unmarked) [Example 44, N-(2,2-difluoro-1-methylcyclopropyl)-4-(3-(4-fluoro-2,6-dimethylphenoxy)-1-methyl-2-oxo-1,2-dihydropyridin-4-yl)-6-methyl-7-oxo-6,7-dihydro-1H-pyrrolo[2,3-c]pyridine-2-carboxamide], the values for the Kd in data set [1] and in data set [2] were greater than 1000 nM and 10 to 100 nM, respectively. For the same molecule, the EC50 in data set [3] (setting [5]) lay within 100 to 1000 nM. Further, in data set [4], the “Intrinsic clearance, % Liver Blood Flow” value worked out at 34 % Liver Blood Flow.

Regarding `Cn1cc(-c2scnc2OC2CCC2)c2cc[nH]c2c1=O` [Example 45, 4-(4-cyclobutoxythiazol-5-yl)-6-methyl-1,6-dihydro-7H-pyrrolo[2,3-c]pyridin-7-one], the Kd in data set [1] lay within 100 to 1000 nM; in data set [2], 10 to 100 nM. The “Intrinsic clearance, % Liver Blood Flow” value in data set [4] was 86 % Liver Blood Flow.

Take `CCCOc1ncsc1-c1cn(C)c(=O)c2[nH]ccc12` [Example 46, 6-methyl-4-(4-propoxythiazol-5-yl)-1,6-dihydro-7H-pyrrolo[2,3-c]pyridin-7-one]: the Kd lay within 100 to 1000 nM in data set [1] and 10 to 100 nM in data set [2]. The EC50 is 10 to 100 nM in data set [3] (setting [5]) and less than 100 nM in data set [3] (setting [6]). Moreover, in data set [4], the “Intrinsic clearance, % Liver Blood Flow” value turned out to be 89 % Liver Blood Flow.

Consider `Cc1cc(F)cc(C)c1Oc1c(-c2cn(C)c(=O)c3[nH]ccc23)ccn(C)c1=O` [Example 47, 4-(3-(4-fluoro-2,6-dimethylphenoxy)-1-methyl-2-oxo-1,2-dihydropyridin-4-yl)-6-methyl-1,6-dihydro-7H-pyrrolo[2,3-c]pyridin-7-one], for which the Kd in data set [2] is no more than 10 nM. Besides, the EC50 in data set [3] (48 hrs, ELISA, read-out: EC50 reduction of IL-4 levels) lay within 100 to 1000 nM.
